Measured values taken from US10189841B2, “Purinones as ubiquitin-specific protease 1 inhibitors” (Forma Therapeutics, Inc., priority 2015, dated 2019).

biological target: USP1 (construct USP1 (I-785, GG670, 671AA)/UAF1 (I-677)-Flag) (Homo sapiens (Human), UniProt O94782, G670A/G671A); experiment: Ubiquitin-Rhodamine 110 assay for USP1 activity; format: biochemical; settings: USP1/UAF1 25 pM, Ub-Rh110 25 nM, 30 min preincubation
Summary of the method: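 Two formats with the USP1/UAF1 complex and 25 nM ubiquitin-rhodamine 110 in pH 8.0 Tris buffer with calcium, glutathione and detergent. Single-point screening used 10 µM, 100 pM enzyme and 45 min. Inhibition was set against no-enzyme and DMSO wells.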

Chain of USP1 (construct USP1 (I-785, GG670, 671AA)/UAF1 (I-677)-Flag) (O94782 whole entry G670A/G671A): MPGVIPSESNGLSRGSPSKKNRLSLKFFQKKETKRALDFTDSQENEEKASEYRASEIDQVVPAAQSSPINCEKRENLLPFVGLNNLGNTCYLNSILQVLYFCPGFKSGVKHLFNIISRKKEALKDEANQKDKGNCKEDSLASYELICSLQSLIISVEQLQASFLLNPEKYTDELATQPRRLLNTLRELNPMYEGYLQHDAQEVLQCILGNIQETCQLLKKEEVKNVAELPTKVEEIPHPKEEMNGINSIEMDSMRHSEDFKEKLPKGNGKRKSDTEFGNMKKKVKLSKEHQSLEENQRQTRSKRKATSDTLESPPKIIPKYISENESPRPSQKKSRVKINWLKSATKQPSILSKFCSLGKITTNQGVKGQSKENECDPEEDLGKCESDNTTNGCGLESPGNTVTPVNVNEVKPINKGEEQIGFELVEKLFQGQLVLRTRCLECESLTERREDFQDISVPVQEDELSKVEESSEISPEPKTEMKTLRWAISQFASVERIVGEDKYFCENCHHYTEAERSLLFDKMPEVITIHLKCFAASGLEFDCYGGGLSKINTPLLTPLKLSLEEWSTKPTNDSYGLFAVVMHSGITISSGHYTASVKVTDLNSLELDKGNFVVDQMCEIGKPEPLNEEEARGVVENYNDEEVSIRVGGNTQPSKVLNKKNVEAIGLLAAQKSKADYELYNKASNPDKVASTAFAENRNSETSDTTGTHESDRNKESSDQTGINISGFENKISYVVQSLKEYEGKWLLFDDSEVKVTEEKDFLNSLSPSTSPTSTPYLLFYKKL
Chain of USP1 (construct USP1 (I-785, GG670, 671AA)/UAF1 (I-677)-Flag) (Q8TAF3 whole entry partner): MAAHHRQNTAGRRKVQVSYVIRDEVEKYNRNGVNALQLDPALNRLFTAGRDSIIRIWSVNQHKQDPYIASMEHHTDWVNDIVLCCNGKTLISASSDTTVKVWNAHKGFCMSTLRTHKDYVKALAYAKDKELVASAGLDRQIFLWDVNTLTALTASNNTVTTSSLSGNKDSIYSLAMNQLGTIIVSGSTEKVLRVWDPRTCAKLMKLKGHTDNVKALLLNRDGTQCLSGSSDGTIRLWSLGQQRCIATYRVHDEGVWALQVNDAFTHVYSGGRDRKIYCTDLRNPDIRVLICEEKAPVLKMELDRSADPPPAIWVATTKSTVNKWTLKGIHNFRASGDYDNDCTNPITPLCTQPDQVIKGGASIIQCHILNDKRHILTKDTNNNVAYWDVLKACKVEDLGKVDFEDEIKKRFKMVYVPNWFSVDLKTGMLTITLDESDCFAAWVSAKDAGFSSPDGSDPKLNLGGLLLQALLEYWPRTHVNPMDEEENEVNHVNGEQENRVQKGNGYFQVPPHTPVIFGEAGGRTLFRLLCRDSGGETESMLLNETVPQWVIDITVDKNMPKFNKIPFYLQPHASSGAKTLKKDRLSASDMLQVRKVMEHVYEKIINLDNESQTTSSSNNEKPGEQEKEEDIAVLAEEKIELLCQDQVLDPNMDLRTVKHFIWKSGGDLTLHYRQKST

First: CC(C)c1ccccc1-c1ncc2[nH]c(=O)n(Cc3ccccc3)c2n1 [Compound I-171, 9-benzyl-2-(2-isopropylphenyl)-7,9-dihydro-8H-purin-8-one]
Second: CC(C)c1ccccc1-c1ncc2[nH]c(=O)n([C@H](CO)c3ccccc3)c2n1 [Compound I-181, (S)-9-(2-hydroxy-1-phenylethyl)-2-(2-isopropylphenyl)-7,9-dihydro-8H-purin-8-one]
The IC50 of the first is lower: 50 to 200 nM for the first, 200 to 2000 nM for the second.

`CC(C)c1c(F)cccc1-c1ncc2[nH]c(=O)n(Cc3ccc(-c4nccn4C)cc3)c2n1` [Compound I-172, 2-(3-fluoro-2-isopropylphenyl)-9-(4-(1-methyl-1H-imidazol-2-yl)benzyl)-7,9-dihydro-8H-purin-8-one] and `CC(C)c1c(F)cccc1-c1ncc2[nH]c(=O)n(Cc3ccc(-c4nc(C(F)(F)F)cn4C)cc3)c2n1` [Compound I-193, 2-(3-fluoro-2-isopropylphenyl)-9-(4-(1-methyl-4-(trifluoromethyl)-1H-imidazol-2-yl)benzyl)-7,9-dihydro-8H-purin-8-one] cannot be ordered by IC50: under 50 nM for the first, under 50 nM for the second.

`CC(C)c1ccccc1-c1ncc2[nH]c(=O)n(Cc3ccc(-n4ccc(N5CCN(C)CC5)n4)cc3)c2n1` [Compound I-173, 2-(2-isopropylphenyl)-9-(4-(3-(4-methylpiperazin-1-yl)-1H-pyrazol-1-yl)benzyl)-7,9-dihydro-8H-purin-8-one] and `CC(C)c1ccccc1-c1ncc2[nH]c(=O)n(Cc3ccc(-n4ccc(N5CCOCC5)n4)cc3)c2n1` [Compound I-174, 2-(2-isopropylphenyl)-9-(4-(3-morpholino-1H-pyrazol-1-yl)benzyl)-7,9-dihydro-8H-purin-8-one] cannot be ordered by IC50: under 50 nM for the first, under 50 nM for the second.

`Cc1cn(-c2ccc(Cn3c(=O)[nH]c4cnc(-c5ccccc5C(C)C)nc43)cc2)nn1` [Compound I-175, 2-(2-isopropylphenyl)-9-(4-(4-methyl-1H-1,2,3-triazol-1-yl)benzyl)-7,9-dihydro-8H-purin-8-one] and `Cc1cnnn1-c1ccc(Cn2c(=O)[nH]c3cnc(-c4ccccc4C(C)C)nc32)cc1` [Compound I-185, 2-(2-isopropylphenyl)-9-(4-(5-methyl-1H-1,2,3-triazol-1-yl)benzyl)-7,9-dihydro-8H-purin-8-one] cannot be ordered by IC50: under 50 nM for the first, under 50 nM for the second.

`CC(C)c1ccccc1-c1ncc2[nH]c(=O)n(Cc3ccc(-c4ncc(F)n4C)cc3)c2n1` [Compound I-176, 9-(4-(5-fluoro-1-methyl-1H-imidazol-2-yl)benzyl)-2-(2-isopropylphenyl)-7,9-dihydro-8H-purin-8-one] and `CC(C)c1ccccc1-c1ncc2[nH]c(=O)n(Cc3ccc(-c4nc(Cl)cn4C)cc3)c2n1` [Compound I-198, 9-(4-(4-chloro-1-methyl-1H-imidazol-2-yl)benzyl)-2-(2-isopropylphenyl)-7,9-dihydro-8H-purin-8-one] cannot be ordered by IC50: under 50 nM for the first, under 50 nM for the second.

Compared with `CC(C)c1ccccc1-c1ncc2[nH]c(=O)n(Cc3ccc(-n4cccn4)c(F)c3)c2n1` [Compound I-177, 9-(3-fluoro-4-(1H-pyrazol-1-yl)benzyl)-2-(2-isopropylphenyl)-7,9-dihydro-8H-purin-8-one], `CC(C)c1ccccc1-c1ncc2[nH]c(=O)n(Cc3cccc(-n4cccn4)c3)c2n1` [Compound I-197, 9-(3-(1H-pyrazol-1-yl)benzyl)-2-(2-isopropylphenyl)-7,9-dihydro-8H-purin-8-one] is higher in IC50: under 50 nM for the first, 50 to 200 nM for the second.

First: CC(C)c1ccccc1-c1ncc2[nH]c(=O)n([C@H](C)c3ccc(F)cc3)c2n1 [Compound I-178, (R)-9-(1-(4-fluorophenyl)ethyl)-2-(2-isopropylphenyl)-7,9-dihydro-8H-purin-8-one]
Second: CC(C)c1ccccc1-c1ncc2[nH]c(=O)n([C@@H](C)c3ccc(F)cc3)c2n1 [Compound I-179, (S)-9-(1-(4-fluorophenyl)ethyl)-2-(2-isopropylphenyl)-7,9-dihydro-8H-purin-8-one]
The IC50 of the first is lower: under 50 nM for the first, 50 to 200 nM for the second. The first is the more potent here.

First: CC(C)c1ccccc1-c1ncc2[nH]c(=O)n([C@H](CO)c3ccc(F)cc3)c2n1 [Compound I-180, (S)-9-(1-(4-fluorophenyl)-2-hydroxyethyl)-2-(2-isopropylphenyl)-7,9-dihydro-8H-purin-8-one]
Second: Cc1cc(C)n(-c2ccc([C@@H](C)n3c(=O)[nH]c4cnc(-c5ccccc5C(C)C)nc43)cc2)n1 [Compound I-190, (R)-9-(1-(4-(3,5-dimethyl-1H-pyrazol-1-yl)phenyl)ethyl)-2-(2-isopropylphenyl)-7,9-dihydro-8H-purin-8-one]
The IC50 of the first is higher: 50 to 200 nM for the first, under 50 nM for the second. The second is the more potent here.

Compared with `CC(C)c1ccccc1-c1ncc2[nH]c(=O)n(Cc3ccc4c(c3)ncn4C)c2n1` [Compound I-182, 2-(2-isopropylphenyl)-9-((1-methyl-1H-benzo[d]imidazol-5-yl)methyl)-7,9-dihydro-8H-purin-8-one], `CC(C)c1ccccc1-c1ncc2[nH]c(=O)n(Cc3ccc4c(c3)CN(C)C4=O)c2n1` [Compound I-186, 2-(2-isopropylphenyl)-9-((2-methyl-1-oxoisoindolin-5-yl)methyl)-7,9-dihydro-8H-purin-8-one] is lower in IC50: over 2000 nM for the first, 50 to 200 nM for the second.

Compared with `CC(C)c1ccccc1-c1ncc2[nH]c(=O)n(Cc3ccc(S(C)(=O)=O)cc3)c2n1` [Compound I-183, 2-(2-isopropylphenyl)-9-(4-(methylsulfonyl)benzyl)-7,9-dihydro-8H-purin-8-one], `Cc1ccnn1-c1ccc(Cn2c(=O)[nH]c3cnc(-c4ccccc4C(C)C)nc32)cc1` [Compound I-184, 2-(2-isopropylphenyl)-9-(4-(5-methyl-1H-pyrazol-1-yl)benzyl)-7,9-dihydro-8H-purin-8-one] is lower in IC50: over 2000 nM for the first, under 50 nM for the second. The second is the more potent here.

`CC(C)c1ccccc1-c1ncc2[nH]c(=O)n(Cc3ccc4c(c3)CCN(C)C4=O)c2n1` [Compound I-187, 6-((2-(2-isopropylphenyl)-8-oxo-7,8-dihydro-9H-purin-9-yl)methyl)-2-methyl-3,4-dihydroisoquinolin-1(2H)-one] and `Cc1cn(C)c(-c2ccc(Cn3c(=O)[nH]c4cnc(-c5ccccc5C(C)C)nc43)cn2)n1` [Compound I-203, 9-((6-(1,4-dimethyl-1H-imidazol-2-yl)pyridin-3-yl)methyl)-2-(2-isopropylphenyl)-7,9-dihydro-8H-purin-8-one] cannot be ordered by IC50: under 50 nM for the first, under 50 nM for the second.

`Cc1nc(-c2ccc(Cn3c(=O)[nH]c4cnc(-c5cccc(F)c5C(C)C)nc43)cc2)no1` [Compound I-188, 2-(3-fluoro-2-isopropylphenyl)-9-(4-(5-methyl-1,2,4-oxadiazol-3-yl)benzyl)-7,9-dihydro-8H-purin-8-one] and `Cc1nnc(-c2ccc(Cn3c(=O)[nH]c4cnc(-c5cccc(F)c5C(C)C)nc43)cc2)o1` [Compound I-189, 2-(3-fluoro-2-isopropylphenyl)-9-(4-(5-methyl-1,3,4-oxadiazol-2-yl)benzyl)-7,9-dihydro-8H-purin-8-one] cannot be ordered by IC50: under 50 nM for the first, under 50 nM for the second.

`Cc1cc(C)n(-c2ccc([C@H](C)n3c(=O)[nH]c4cnc(-c5ccccc5C(C)C)nc43)cc2)n1` [Compound I-191, (S)-9-(1-(4-(3,5-dimethyl-1H-pyrazol-1-yl)phenyl)ethyl)-2-(2-isopropylphenyl)-7,9-dihydro-8H-purin-8-one] and `Cc1cc(C(F)(F)F)nn1-c1ccc(Cn2c(=O)[nH]c3cnc(-c4ccccc4C(C)C)nc32)cc1` [Compound I-194, 2-(2-isopropylphenyl)-9-(4-(5-methyl-3-(trifluoromethyl)-1H-pyrazol-1-yl)benzyl)-7,9-dihydro-8H-purin-8-one] cannot be ordered by IC50: under 50 nM for the first, under 50 nM for the second.

`CC(C)c1ccccc1-c1ncc2[nH]c(=O)n(Cc3ccc(-c4nc(C(F)(F)F)cn4C4COC4)cc3)c2n1` [Compound I-192, 2-(2-isopropylphenyl)-9-(4-(1-(oxetan-3-yl)-4-(trifluoromethyl)-1H-imidazol-2-yl)benzyl)-7,9-dihydro-8H-purin-8-one] and `CC(C)c1c(F)cccc1-c1ncc2[nH]c(=O)n(Cc3ccc(-c4nc(C(F)(F)F)cn4C4COC4)cc3)c2n1` [Compound I-201, 2-(3-fluoro-2-isopropylphenyl)-9-(4-(1-(oxetan-3-yl)-4-(trifluoromethyl)-1H-imidazol-2-yl)benzyl)-7,9-dihydro-8H-purin-8-one] cannot be ordered by IC50: under 50 nM for the first, under 50 nM for the second.

`Cc1cc(C(F)(F)F)n(-c2ccc(Cn3c(=O)[nH]c4cnc(-c5ccccc5C(C)C)nc43)cc2)n1` [Compound I-195, 2-(2-isopropylphenyl)-9-(4-(3-methyl-5-(trifluoromethyl)-1H-pyrazol-1-yl)benzyl)-7,9-dihydro-8H-purin-8-one] and `CC(C)c1ccccc1-c1ncc2[nH]c(=O)n(Cc3ccc(-n4nc(C#N)cc4C#N)cc3)c2n1` [Compound I-199, 1-(4-((2-(2-isopropylphenyl)-8-oxo-7,8-dihydro-9H-purin-9-yl)methyl)phenyl)-1H-pyrazole-3,5-dicarbonitrile] cannot be ordered by IC50: under 50 nM for the first, under 50 nM for the second.

`CC(C)c1ccccc1-c1ncc2[nH]c(=O)n(Cc3ccc(-n4ccc(C#N)n4)cc3)c2n1` [Compound I-196, 1-(4-((2-(2-isopropylphenyl)-8-oxo-7,8-dihydro-9H-purin-9-yl)methyl)phenyl)-1H-pyrazole-3-carbonitrile] and `COc1ccn(-c2ccc(Cn3c(=O)[nH]c4cnc(-c5ccccc5C(C)C)nc43)cc2)n1` [Compound I-204, 2-(2-isopropylphenyl)-9-(4-(3-methoxy-1H-pyrazol-1-yl)benzyl)-7,9-dihydro-8H-purin-8-one] cannot be ordered by IC50: under 50 nM for the first, under 50 nM for the second.

`Cc1nc(-c2ccc(Cn3c(=O)[nH]c4cnc(-c5ccccc5C(C)C)nc43)cc2)c(C)o1` [Compound I-200, 9-(4-(2,5-dimethyloxazol-4-yl)benzyl)-2-(2-isopropylphenyl)-7,9-dihydro-8H-purin-8-one] and `Cc1cn(C2COC2)c(-c2ccc(Cn3c(=O)[nH]c4cnc(-c5cccc(F)c5C(C)C)nc43)cc2)n1` [Compound I-202, 2-(3-fluoro-2-isopropylphenyl)-9-(4-(4-methyl-1-(oxetan-3-yl)-1H-imidazol-2-yl)benzyl)-7,9-dihydro-8H-purin-8-one] cannot be ordered by IC50: under 50 nM for the first, under 50 nM for the second.
